Measurements reported in ChEMBL document CHEMBL1150518, “Balanced angiotensin II receptor antagonists. III. The effects of substitution at the imidazole 5-position” (Bioorg Med Chem Lett, 1994).

What was measured:
[1] = biological target: T1, Type-2 angiotensin II receptor (Homo sapiens, UniProt P50052); assay: Binding affinity for angiotensin II AT-2 receptor
T1 sequence (P50052 whole entry): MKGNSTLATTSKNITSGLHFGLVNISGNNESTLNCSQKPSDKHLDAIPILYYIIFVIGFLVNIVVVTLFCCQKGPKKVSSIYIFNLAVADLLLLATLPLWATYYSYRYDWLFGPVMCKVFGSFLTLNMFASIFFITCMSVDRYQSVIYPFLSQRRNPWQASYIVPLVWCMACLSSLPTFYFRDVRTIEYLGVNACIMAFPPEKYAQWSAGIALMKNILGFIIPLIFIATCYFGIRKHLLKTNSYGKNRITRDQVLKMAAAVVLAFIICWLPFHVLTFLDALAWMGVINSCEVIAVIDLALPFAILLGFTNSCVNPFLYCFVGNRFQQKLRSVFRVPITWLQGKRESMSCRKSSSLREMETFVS

[2] = biological target: T2, Type-1 angiotensin II receptor (Homo sapiens, UniProt P30556); assay: Binding affinity for Angiotensin II receptor, type 1
T2 sequence (P30556 whole entry): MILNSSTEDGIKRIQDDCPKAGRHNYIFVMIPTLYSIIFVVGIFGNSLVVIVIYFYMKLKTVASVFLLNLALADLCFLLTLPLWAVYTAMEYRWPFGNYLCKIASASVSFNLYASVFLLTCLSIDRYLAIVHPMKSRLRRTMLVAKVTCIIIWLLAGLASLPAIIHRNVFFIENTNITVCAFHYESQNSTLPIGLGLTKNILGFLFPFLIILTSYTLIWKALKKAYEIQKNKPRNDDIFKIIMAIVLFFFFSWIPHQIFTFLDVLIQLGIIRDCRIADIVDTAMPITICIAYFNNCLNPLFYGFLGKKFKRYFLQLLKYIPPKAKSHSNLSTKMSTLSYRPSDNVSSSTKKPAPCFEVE

Structure (SMILES) | IC50 [1] [nM] | IC50 [2] [nM]
CCCc1nc(CC)c(C(=O)OCc2ccccc2NC(=O)c2ccccc2)n1Cc1ccc(-c2ccccc2S(=O)(=O)NC(=O)OCCC(C)C)cc1F | 1 | 0.3
CCCc1nc(CC)c(C(=O)OCCCCOc2ccccc2)n1Cc1ccc(-c2ccccc2S(=O)(=O)NC(=O)OCCC(C)C)cc1F | 2 | 0.2
CCCc1nc(CC)c(C(=O)OCCN(C(=O)OCCC(C)C)c2ccccc2)n1Cc1ccc(-c2ccccc2S(=O)(=O)NC(=O)OCCC(C)C)cc1F | 4 | 0.2
CCCc1nc(CC)c(C(=O)OCCC(=O)Nc2ccccc2)n1Cc1ccc(-c2ccccc2S(=O)(=O)NC(=O)OCCC(C)C)cc1F | 3 | 0.1
CCCc1nc(CC)c(C(=O)NCCCOc2ccccc2)n1Cc1ccc(-c2ccccc2S(=O)(=O)NC(=O)OCCC(C)C)cc1F | 9 | 0.3
CCCOC(=O)NS(=O)(=O)c1ccccc1-c1ccc(Cn2c(CCC)nc(CC)c2C(=O)OCc2ccccc2-c2cncnc2)c(F)c1 | 10 | 0.8
CCCOC(=O)NS(=O)(=O)c1ccccc1-c1ccc(Cn2c(CCC)nc(CC)c2C(=O)OCc2ccccc2-c2cccs2)c(F)c1 | 3 | 0.5
CCCCCOC(=O)NS(=O)(=O)c1ccccc1-c1ccc(Cn2c(CCC)nc(CC)c2C(=O)OCCC(=O)Nc2ccccc2)c(F)c1 | 1 | 0.1
CCCc1nc(CC)c(C(=O)NCc2ccccc2Sc2ccccc2)n1Cc1ccc(-c2ccccc2S(=O)(=O)NC(=O)OCCC(C)C)cc1F | 3 | 0.4
CCCc1nc(CC)c(C(=O)OCc2ccccc2OCCC(C)C)n1Cc1ccc(-c2ccccc2S(=O)(=O)NC(=O)OCCC(C)C)cc1F | 10 | 3
CCCc1nc(CC)c(C(=O)OCCCS(=O)(=O)c2ccccc2)n1Cc1ccc(-c2ccccc2S(=O)(=O)NC(=O)OCCC(C)C)cc1F | 2 | 0.2
CCCCCCCOC(=O)NS(=O)(=O)c1ccccc1-c1ccc(Cn2c(CCC)nc(CC)c2C(=O)OCc2ccccc2OC)c(F)c1 | 10 | 1
CCCc1nc(CC)c(C(=O)OCc2ccccc2C(=O)C(C)(C)C)n1Cc1ccc(-c2ccccc2S(=O)(=O)NC(=O)OCCC(C)C)cc1F | 3 | 0.3
CCCOC(=O)NS(=O)(=O)c1ccccc1-c1ccc(Cn2c(CCC)nc(CC)c2C(=O)OCc2cccc(C(=O)c3ccccc3)c2)c(F)c1 | 10 | 0.3
CCCc1nc(CC)c(C(=O)OCCN2C(=O)c3ccccc3C2=O)n1Cc1ccc(-c2ccccc2S(=O)(=O)NC(=O)OCCC(C)C)cc1F | 7 | 0.2
CCCc1nc(CC)c(C(=O)OCCC[S+]([O-])c2ccccc2)n1Cc1ccc(-c2ccccc2S(=O)(=O)NC(=O)OCCC(C)C)cc1F (centres undefined) | 1 | 0.2
CCCc1nc(CC)c(C(=O)NCc2ccccc2[S+]([O-])c2ccccc2)n1Cc1ccc(-c2ccccc2S(=O)(=O)NC(=O)OCCC(C)C)cc1F (centres undefined) | 5 | 0.6
CCCc1nc(CC)c(C(=O)OCCCC(=O)Nc2ccccc2)n1Cc1ccc(-c2ccccc2S(=O)(=O)NC(=O)OCCC(C)C)cc1F | 5 | 0.2
CCCc1nc(CC)c(C(=O)OCCCOc2ccccc2)n1Cc1ccc(-c2ccccc2S(=O)(=O)NC(=O)OCCC(C)C)cc1F | 2 | 0.1
CCCCOC(=O)NS(=O)(=O)c1ccccc1-c1ccc(Cn2c(CCC)nc(CC)c2C(=O)NCCCOc2ccccc2)c(F)c1 | 20 | 0.4
CCCc1nc(CC)c(C(=O)OCc2ccccc2OC)n1Cc1ccc(-c2ccccc2S(=O)(=O)NC(=O)OCCC(C)C)cc1F | 1 | 0.1
CCCc1nc(CC)c(C(=O)OCCCN2C(=O)c3ccccc3C2=O)n1Cc1ccc(-c2ccccc2S(=O)(=O)NC(=O)OCCC(C)C)cc1F | 3 | 0.1
CCCc1nc(CC)c(C(=O)OCc2ccccc2C(=O)Nc2ccccc2)n1Cc1ccc(-c2ccccc2S(=O)(=O)NC(=O)OCCC(C)C)cc1F | 1 | 0.3
CCCCN(Cc1ccccc1)C(=O)CCCOC(=O)c1c(CC)nc(CCC)n1Cc1ccc(-c2ccccc2S(=O)(=O)NC(=O)OCCC(C)C)cc1F | 5 | 0.2
CCCc1nc(CC)c(C(=O)OCC(=O)c2ccccc2)n1Cc1ccc(-c2ccccc2S(=O)(=O)NC(=O)OCCC(C)C)cc1F | 2 | 0.1
CCCc1nc(CC)c(C(=O)OCc2cccc(C(=O)c3ccccc3)c2)n1Cc1ccc(-c2ccccc2S(=O)(=O)NC(=O)OCCC(C)C)cc1F | 0.9 | 0.6
CCCOC(=O)NS(=O)(=O)c1ccccc1-c1ccc(Cn2c(CCC)nc(CC)c2C(=O)OCc2ccccc2-c2ccsc2)c(F)c1 | 20 | 0.3
CCCc1nc(CC)c(C(=O)OCc2ccccc2-c2cccs2)n1Cc1ccc(-c2ccccc2S(=O)(=O)NC(=O)OCCC(C)C)cc1F | 3 | 0.8
CCCc1nc(CC)c(C(=O)OCc2ccccc2-c2ccsc2)n1Cc1ccc(-c2ccccc2S(=O)(=O)NC(=O)OCCC(C)C)cc1F | 20 | 0.6

Further lines, results first:

IC50 [1] [nM] | IC50 [2] [nM] | Structure (SMILES)
2000 | 9 | CCCc1nc(CC)c(C(=O)OCc2ccc(C(=O)c3ccccc3)cc2)n1Cc1ccc(-c2ccccc2-c2nn[nH]n2)cc1
3 | 0.3 | CCCc1nc(CC)c(C(=O)OCc2ccccc2-c2ccccn2)n1Cc1ccc(-c2ccccc2S(=O)(=O)NC(=O)OCCC(C)C)cc1F
10 | 0.6 | CCCc1nc(CC)c(C(=O)OCc2ccccc2C(=O)c2ccccc2)n1Cc1ccc(-c2ccccc2S(=O)(=O)NC(=O)OC)cc1
2 | 0.1 | CCCc1nc(CC)c(C(=O)OCCN(C(=O)c2ccccc2)c2ccccc2)n1Cc1ccc(-c2ccccc2S(=O)(=O)NC(=O)OCCC(C)C)cc1F
200 | 8 | CCCCN(Cc1ccccc1)C(=O)c1ccc(COC(=O)c2c(CC)nc(CCC)n2Cc2ccc(-c3ccccc3-c3nn[nH]n3)cc2)cc1
300 | 30 | CCCc1nc(CC)c(C(=O)OCc2cccc(C(=O)N(c3ccccc3)c3ccccc3)c2)n1Cc1ccc(-c2ccccc2-c2nn[nH]n2)cc1
500 | 30 | CCCCN(CCCC)C(=O)CCCOC(=O)c1c(CC)nc(CCC)n1Cc1ccc(-c2ccccc2-c2nnn[nH]2)cc1
300 | 10 | CCCCN(Cc1ccccc1)C(=O)CCCOC(=O)c1c(CC)nc(CCC)n1Cc1ccc(-c2ccccc2-c2nn[nH]n2)cc1
1.9 | 0.35 | CCCc1nc(CC)c(C(=O)OCc2ccccc2C(=O)c2ccccc2)n1Cc1ccc(-c2ccccc2S(=O)(=O)NC(=O)OCCC(C)C)cc1
3000 | 3 | CCCc1nc(CC)c(C(=O)OCc2ccc(-c3ccccc3)cc2)n1Cc1ccc(-c2ccccc2-c2nnn[nH]2)cc1
2000 | 3 | CCCc1nc(CC)c(C(=O)OCc2ccccc2-c2ccccc2)n1Cc1ccc(-c2ccccc2-c2nnn[nH]2)cc1
200 | 20 | CCCc1nc(CC)c(C(=O)OCc2ccc(C(=O)N(c3ccccc3)c3ccccc3)cc2)n1Cc1ccc(-c2ccccc2-c2nnn[nH]2)cc1
400 | 10 | CCCCN(Cc1ccccc1)C(=O)C#CCOC(=O)c1c(CC)nc(CCC)n1Cc1ccc(-c2ccccc2-c2nnn[nH]2)cc1
2.1 | 0.74 | CCCc1nc(CC)c(C(=O)OCc2ccccc2C(=O)c2ccccc2)n1Cc1ccc(-c2ccccc2S(=O)(=O)NC(=O)OCCc2ccccc2)cc1
300 | 2 | CCCc1nc(CC)c(C(=O)OCc2ccccc2C(=O)c2ccccc2)n1Cc1ccc(-c2ccccc2-c2nnn[nH]2)cc1
9 | 3 | CCCc1nc(CC)c(C(=O)OCc2ccccc2-c2ccccc2)n1Cc1ccc(-c2ccccc2S(=O)(=O)NC(=O)OCCC(C)C)cc1F
0.69 | 0.57 | CCCc1nc(CC)c(C(=O)OCc2ccccc2C(=O)c2ccccc2)n1Cc1ccc(-c2ccccc2S(=O)(=O)NC(=O)OCCc2ccccc2)cc1F
3 | 0.6 | CCCCOC(=O)NS(=O)(=O)c1ccccc1-c1ccc(Cn2c(CCC)nc(CC)c2C(=O)OCc2ccccc2Oc2ccccc2)c(F)c1
1000 | 9 | CCCc1nc(CC)c(C(=O)OCc2cccc(C(=O)c3ccccc3)c2)n1Cc1ccc(-c2ccccc2-c2nn[nH]n2)cc1
1 | 0.5 | CCCc1nc(CC)c(C(=O)OCc2ccccc2C(=O)c2ccccc2)n1Cc1ccc(-c2ccccc2S(=O)(=O)NC(=O)OCC(C)C)cc1F
2 | 0.2 | CCCc1nc(CC)c(C(=O)OCc2ccccc2[S+]([O-])c2ccccc2)n1Cc1ccc(-c2ccccc2S(=O)(=O)NC(=O)OCCC(C)C)cc1F (centres undefined)
600 | 40 | CCCc1nc(CC)c(C(=O)OCC#CC(=O)N(c2ccccc2)c2ccccc2)n1Cc1ccc(-c2ccccc2-c2nn[nH]n2)cc1
3 | 0.8 | CCCc1nc(CC)c(C(=O)OC(C(=O)c2ccccc2)c2ccccc2)n1Cc1ccc(-c2ccccc2S(=O)(=O)NC(=O)OCCC(C)C)cc1F (centres undefined)
